From patent publication US20090018106A1, “INTRAVENOUS FORMULATIONS OF PYRIDOXAL 5'- PHOSPHATE AND METHOD OF PREPARATION” (Medicure International Inc., priority 2005, published 2009) come the findings set out here.

One data set in a line: clinical. The arrangement: species or system human. The following applies: in vivo; for AUC: AUC0-τ; for half-life: T1/2 el. Here is the method: (§1) Data sets analyzed—Six (6) healthy, adult non-smokers were administered intravenously a single daily dose of 10 mg/kb of P5P for four consecutive days and completed the study. In accordance with the study protocol, data from all subjects who completed the study were used for pharmacokinetic and statistical analysis.
Analytical Methods—Plasma and urine samples were used for analysis. P5P, PAL, and PA levels were determined by HPLC/FLD. The quantitation level was 5 ng/mL for plasma and 100 ng/mL for urine. The sample analysis calibration curve range was 5 ng/mL to 5000 ng/mL for plasma and 100 ng/mL to 50,000 ng/mL for urine.
When the difference exceeded this time limit, the actual sampling times (rounded off to three decimal digits) were used to calculate pharmacokinetic parameters except for pre-dose samples, which were always reported as zero (0.000), regardless of time deviations. Scheduled sampling times are presented in concentration tables and graphs of the statistical section of the report.
Pharmacokinetic analyses (non-compartmental and compartmental) were performed at SFBC Anapharm. Pharmacokinetic parameters were calculated using either Bioequiv (release 3.40) or WinNonLin™ (release 4.0.1). Bioequiv is proprietary software developed and tested for bioequivalence studies at SFBC Anapharm. This software performs non-compartmental analyses of pharmacokinetic parameters and statistical analyses (via SAS release 6.12) according to FDA, HPFB and BMEA guidance.
The mean, standard deviation (SD), coefficient of variation (CV (%)) and range (min. and max.) were calculated for plasma concentrations of P5P (both baseline corrected and uncorrected), PAL and PA for each sampling time and treatment.
For the non-compartmental pharmacokinetic analyses the mean. SD, CV (%). range (min. and max.), median and interquartile range were calculated for the AUC0-t, (ng·h/mL), AUC0-t (ng·h/mL), AUC0-inf (ng·h/mL), Cmax (ng/mL), Cmin (ng/mL), Cavg (ng/mL), Fl(%), Ae0-t (ng), AUC^t/inf (%), Tmax (h), T1/2 el (h), Kel (h^−1), TLIN (h), LQCT (h). CLT (L/h), CLR (L/h). Vβ (L), MRT (h) and Accumulation ratio. The calculation of these pharmacokinetic parameters is explained below.
Cmax the maximum observed concentration, and Tmax, the time to reach that peak concentration, were determined for each subject and for each analyte. For Day 4 data, Cmin the minimum observed concentration was determined for each subject and for each analyte and Cavg was calculated as AUC0-τ/τ.
Percentage of Fluctuation—For Day 4 data, the peak-through percentage of fluctuation over one dosing interval (Fl(%)) was calculated as: 100*([Cmax−Cmin]/Cavg)
Half-Life and Elimination Rate Constant—To calculate the elimination rate constant (Kel), regression analyses were performed on the natural log(Ln) of plasma concentration values (y) versus time (x). Calculations were made between a time point where log-linear elimination phase begins (TLIN) and the time at which the last concentration above the limit of quantification (LQCT) occurred. The Kel was taken as the slope multiplied by (−1) and the apparent half-life (T1/2 el) as (In 2)/Kel.
TLIN and LQCT—TLIN, the time point where In-linear Kel calculation begins, and LQCT, the sampling time of the last quantifiable concentration used to estimate the Kel were determined by the scientist (according to SFBC Anapharm's standard operating procedures) for each subject and for each treatment. At least 4 non-zero observations during the terminal elimination phase were used to calculate the Kel. A minimum of 3 observations were used if less than 4 observations were available.
Areas Under the Concentration-Time Curves—AUC0-t was calculated using the linear trapezoidal rule from time 0.000 h until the last non-zero concentration.
AUC0-τ was calculated using the linear trapezoidal rule from time 0.000 h until 24.0 h.
The AUC0-inf was calculated as: […]

The nature of data set [1]: Cumulative urinary excretion after single intravenous dose of P5P (Example Three). In kind it is in vivo, human. The settings on record: for Cumulative Urinary Excretion as Percent of the Dose: Percent (CV %). Here is the method:
P5P, pyridoxal, and 4-pyridoxic acid were evaluated in both plasma and urine over a 24 hour interval following either intravenous or oral dosing. The results are set out below in Tables 2 and 3. The urinary excretion of the unchanged P5P is negligible. Less than 0.5% of the administered dose was found as P5P in the urine (Table 10). Similarly, very little of the dose was excreted in urine as PAL, between approximately 2 to 3% of the total dose (Table 10). PA represented the largest amounts found in urine. Over a 24-hour interval, between 30% and 52% of the given dose was excreted in urine as 4-pyridoxic acid.

A short description of data set [2]: Safety and tolerability of single intravenous doses of P5P (Example Three). In kind it is in vivo, human. On the procedure: Methodology—This was a single-blind, single-dose escalation, non-randomized, 4-phase, non-crossover study designed to evaluate the safety and tolerability of P5P intravenous injectable solution at doses of 1, 5, 10, 20 mg/kg, administered to four groups of healthy male and female subjects under fasting conditions and to estimate pharmacokinetic parameters of P5P.
Safety data were collected for each subject throughout the study by recording vital signs, ECGs and reported adverse events.
Primary Endpoint—Safety Parameters—The safety parameters investigated in this study were vital signs measurements (blood pressure, pulse rate), ECG measurements (1, 2 and 12 hours post-dose), platelet function testing, and severity and causality of adverse events experienced by subjects during the study period and laboratory assessments (clinical chemistry, hematology, urinalysis).

Data set [3] can be described thus: Safety evaluation of once daily intravenous 10 mg/kg P5P for four days (Example Four). In kind it is in vivo, human. On the procedure:
as §1
Safety Methods—The safety parameters investigated in this study were: adverse events, vital sign measurements, ECGs, physical examination and standard laboratory evaluations.

Setting [4] is: Group 1, dose of P5P 1 mg/1 kg, single iv.
[5] abbreviates: Group 3, P5P 10 mg/kg single iv.
[6] abbreviates: Group 4, dose of P5P, single iv.

Entries after “also recorded” stand apart in the source; their conditions may differ.

On to `Cc1ncc(CO)c(C(=O)O)c1O` [PA, 4-pyridoxic acid], for which, in “clinical” (human), the “Ratio of LS Means, AUC0-inf” value was determined as 99.47%; the “Ratio of LS Means, AUC0-t” value is on record as 99.75%; the “Ratio of LS Means, Cmax” value is 97.17%. Moreover, in the data set “clinical” (human, iv, 10 mg/kg), the AUC(0-inf) came out at 21097.95 ng·h/mL, the AUC(0-t) came out at 20704.80 ng·h/mL, the Cmax was 4238 ng/mL and the Tmax was 0.528 h. In “clinical” (human, iv, 10 mg/kg), this compound showed an AUC of 21200 ng·h/mL, an MRT of 3.85 h and a half-life of 2.3 h. The same compound came in with an AUC(0-inf) in “clinical” (human, iv, 10 mg/kg, AUC0-inf) of 21200 ng·h/mL. Also, in “clinical” (human, iv, 10 mg/kg, AUC0-t), the AUC(0-t) was 20700 ng·h/mL. In “clinical” (human, iv, 10 mg/kg, Cmax), this compound yielded a maximum concentration (Cmax) of 4360 ng/mL. The Tmax in the data set “clinical” (human, iv, 10 mg/kg, Tmax) worked out at 0.611 h. In addition, the “ANOVA, difference between treatment days” value in the data set “clinical” is “did not detect any statistically significant difference”. Also, in data set [1] (setting [4]), the “Cumulative Urinary Excretion as Percent of the Dose” value is 52.25 (28) Percent. Moreover, the “Cumulative Urinary Excretion as Percent of the Dose” value in data set [1] (Group 2, P5P 5 mg/kg single iv) is 47.18 (32) Percent. In addition, the “Cumulative Urinary Excretion as Percent of the Dose” value in data set [1] (setting [5]) is 29.78 (32) Percent. Also, the “Cumulative Urinary Excretion as Percent of the Dose” value in data set [1] (setting [6]) was 40.55 (54) Percent.
Consider `Cc1ncc(COP(=O)(O)O)c(C=O)c1O` [P5P, Pyridoxal 5′-phosphate, reference compound], for which, in data set [2] (single iv dose, doses up to 20 mg/kg), the safety and tolerability result was “safe and well tolerated”. Further, the “common side effects observed” value in data set [2] (single iv doses 1-20 mg/kg) is “nausea, vomiting and stomach upset”. Also, the Tmax in “clinical” (human, Tmax) worked out at 0.067 h. In the data set “clinical” (human, iv, 10 mg/kg), the AUC0-τ is 303393.72 ng·h/mL, the time to peak (Tmax) amounted to 0.081 h, the area under the curve (AUC) amounted to 303000 ng·h/mL and the MRT came to 3.4 h. Moreover, in the data set “clinical” (human, iv, 10 mg/kg), the half-life is 5.14 h. Besides, in the data set “clinical” (human, iv, 10 mg/kg, AUC0-inf), the AUC(0-inf) was found to be 283000 ng·h/mL. This compound also returned an AUC(0-t) in “clinical” (human, iv, 10 mg/kg, AUC0-t) of 278000 ng·h/mL. Further, the clearance in the data set “clinical” (human, iv, 10 mg/kg, CLτ (text: CLT, total body clearance)) is 42.5 mL/min. The concentration in “clinical” (human, iv, 10 mg/kg, Cmax) peaked (Cmax) at 191000 ng/mL. In addition, the Tmax in the data set “clinical” (human, iv, 10 mg/kg, Tmax) turned out to be 0.089 h. Besides, the “ANOVA, difference between treatment days” value in the data set “clinical” was “did not detect any statistically significant difference”. Also, the “Cumulative Urinary Excretion as Percent of the Dose” value in data set [1] (setting [4]) was 0.06 (161) Percent. Besides, in data set [1] (Group 2, P5P 5 mg/kg single iv), the “Cumulative Urinary Excretion as Percent of the Dose” value is recorded as 0.08 (96) Percent. Besides, the “Cumulative Urinary Excretion as Percent of the Dose” value in data set [1] (setting [5]) is given as 0.02 (167) Percent. In data set [1] (setting [6]), the “Cumulative Urinary Excretion as Percent of the Dose” value is reported as 0.26 (73) Percent. Further, the “part of the administered dose found in urine” value in data set [1] (single iv P5P 1-20 mg/kg, 24-hour interval) is on record as “Less than 0.5%”. For the same compound, in data set [3] (10 mg/kg iv once daily, 4 days), the “clinically significant elevated white blood cells (WBC) in urine (pyuria)” value was “observed for two subjects”; the diarrhea or vomiting result is “No diarrhea or vomiting was reported”; the overall safety profile result is given as “No serious, severe, or significant adverse events; also recorded: well tolerated with no serious or lasting treatment related effects”. Besides, the “abnormal taste in the mouth” value in data set [3] (1 subject, 10 mg/kg iv once daily, 4 days) came out at 16.7%. Also, the “dizziness (feels dizzy and dizziness)” value in data set [3] (2 subjects, 10 mg/kg iv once daily, 4 days) is 33.3 % of subjects. Besides, in data set [3] (3 subjects, 10 mg/kg iv once daily, 4 days), the nausea is reported as 50.0 % of subjects. Moreover, in data set [3] (3 subjects, judged unrelated to the study medication), the “inflammation at injection site” value is given as 50.0 % of subjects. The total adverse events in data set [3] (six subjects, 10 mg/kg iv once daily, 4 days) is given as 40.
In the case of `Cc1ncc(CO)c(C=O)c1O` [PAL, pyridoxal], in “clinical” (human), the “ANOVA, difference between treatment days” value is “statistically significant difference between treatment days was detected using ANOVA for In-transformed AUC0-t, and AUC0-inf but not for Cmax”; the “Ratio of LS Means, AUC0-inf” value was determined as 133.70%; the “Ratio of LS Means, AUC0-t” value is 132.83%; the “Ratio of LS Means, Cmax” value was 101.45%. In “clinical” (human, iv, 10 mg/kg), the AUC(0-inf) came out at 30077.45 ng·h/mL, the AUC(0-t) was 29682.94 ng·h/mL, the Cmax was determined as 6902 ng/mL and the Tmax was determined as 0.691 h. For the same compound, in the data set “clinical” (human, iv, 10 mg/kg), the AUC is 29700 ng·h/mL, the mean residence time (MRT) was found to be 4.06 h and the half-life was 3.4 h. For the same compound, the AUC(0-inf) in the data set “clinical” (human, iv, 10 mg/kg, AUC0-inf) is 22400 ng·h/mL. The same compound displayed an AUC(0-t) in “clinical” (human, iv, 10 mg/kg, AUC0-t) of 22300 ng·h/mL. The compound also had a Cmax in “clinical” (human, iv, 10 mg/kg, Cmax) of 7630 ng/mL. Besides, the Tmax in “clinical” (human, iv, 10 mg/kg, Tmax) is 0.525 h. Further, in data set [1] (setting [4]), the “Cumulative Urinary Excretion as Percent of the Dose” value is recorded as 1.93 (101) Percent. In addition, in data set [1] (Group 2, P5P 5 mg/kg single iv), the “Cumulative Urinary Excretion as Percent of the Dose” value was 3.00 (37) Percent. For the same compound, in data set [1] (setting [5]), the “Cumulative Urinary Excretion as Percent of the Dose” value is 2.73 (20) Percent. Also, the “Cumulative Urinary Excretion as Percent of the Dose” value in data set [1] (setting [6]) is reported as 2.46 (33) Percent.
